Data: patent US10858443B2, “Synthetic notch protein for modulating gene expression” (TRUSTEES OF BOSTON UNIVERSITY, priority 2017, dated 2020)
Entries after “also recorded” stand apart in the source; their conditions may differ.

Key:
human Notch1 = assay: Dll1-NS3-mCherry ligand presentation and sender/receiver coculture Notch signaling; assay type: cell-based; details: 1.5 μM BILN-2061
Text: FIG. 17C Immunofluorescence staining of fixed (non-permeabilized) cells expressing Dll1-NS3-mCherry. […] FIG. 17D Schematic depiction of trans-cellular signaling between Notch “receiver” cells by Dll1-NS3-mCherry expressing “sender” cells in the absence and presence of drug. FIG. 17E Fluorescence images of cocultured sender and receiver cells. Sender cells expressed the Dll1-NS3-mCherry ligand. Receiver cells constitutively expressed human Notch1 and H2B-Cerulean, and conditionally expressed H2B-Citrine upon up Notch activation. […] The interface between sender and receiver cells colonies is denoted by the white dotted line. FIG. 17F Magnified region from the inset shown in (17E) shown as an overlay with the corresponding transmitted light image.
FIGS. 25A and 25B show images of Dll1-NS3/4A-mCherry mediated cell-cell signaling captured by epifluorescence imaging under 10× magnification. FIG. 25A Sender cells expressing the Dll1-NS3/4A ligand are cultured with receiver cells expressing the Notch transmembrane receptor. Receiver cell population is identified by a constitutively expressed H2B-Cerulean. Notch activation drives reporter activity of H2B-Citrine. Cells are cultured together with or without 1.5 μM BILN-2061 drug for 72 hours before imaging. FIG. 25B […]

NS3 protease [1] = target: T1, NS3 protease (Hepatitis C virus genotype 1a, UniProt P26664, A1066T/DELINS1218-1635AV/I1179L/T1080A); assay type: cell-based; details: Cho-K1 UAS H2B-Citrine line expressing DBGal4-NS3-TAGal4; drug ~24 hours; flow cytometry (FIG. 18)
NS3 protease [2] = target: T1, NS3 protease; assay type: cell-based; details: DBGal4-NS3-TAGal4, anti-HA western; intact TF undetectable in untreated controls
NS3 protease [3] = target: T1, NS3 protease; assay type: cell-based; details: for stabilization of full-length dCas9-NS3 TF (immunoblot): drug-treated versus untreated cells
NS3 protease [4] = target: T1, NS3 protease; assay type: cell-based; details: 3 μM BILN-2061
CXCR4 = assay: dCas9-NS3-NLS/VPR drug-induced gene upregulation (flow cytometry); assay type: cell-based, human; details: dCas9-NS3-NLS/VPR with sgRNA
Description: FIGS. 16A-16E show drug-control over endogenous gene expression using dCas9-NS3-NLSNPR. FIG. 16A Schematic depiction of the drug-inducible stabilization and nuclear localization of dCas9-NS3-NLSNPR. […] An unfused dCas9 domain (160 kDa) is produced in the absence of drug. FIG. 16C Immunostained HeLa cells showing the subcellular localization of the dCas9 domain in the presence or absence of 3 μM BILN-2061. […] FIG. 16D Schematic of the time-dependent dye labeling strategy used to analyze cells expressing SNAP-dCas9-NS3-NLSNPR (top), and corresponding fluorescence images of dye-labeled HeLa cells (bottom). […] Expression of the chemokine receptor was analyzed by staining of cells anti-CXCR4 antibody followed by quantification via flow cytometry.
FIG. 22 sgRNAs targeting the CXCR4 promoter were co-transfected into HEK 293FT alongside DNAs encoding either dCas9-VPR, or dCas9-NS3-NLS/VPR. The extent of CXCR4 upregulation was subsequently quantified by flow cytometry using a fluorescently-labeled anti-CXCR4 antibody. […]
For expression analyses carried out using dCas9-based TFs, HEK 293FT cells were seeded in 48-well plates and transfected at a density of […] cells per well. […] Expression of the chemokine receptor was analysed via flow cytometry using a fluorescently-conjugated CXCR-4 antibody; geometric means were recorded.

NS3 protease [5] = target: T1, NS3 protease; assay type: cell-based; details: increasing concentration of BILN-2061; 100 ng/mL doxycycline
HEK 293FT cells [6] = assay: SynNotch background (leaky) activation, SN versus SN-LWF core, HEK 293FT cells; assay type: cell-based, human
Description: FIGS. 31A-31C show reduction of SynNotch leakiness by incorporation of the juxtamembrane LWF motif (FIG. 31A) Schematic of the Notch TMD and LWF motif, slightly modified from to highlight the difference between the original SynNotch core's C-terminus and the modified SynNotch core's C-terminus, where 10 amino acids are added to include the LWF motif (FIGS. 31B and 31C) anti-FITC SynNotch receptors containing SN or SN-LWF as the core domain are expressed and tested in HEK 293FT cells. Cells are either plated on fibronectin alone to test background activation (dashed lines) or on fibronectin with BSA-FITC to activate the receptors (solid lines). FIG. 31A discloses SEQ ID NO: 70. […] Values shown are the percentage of cells in the ON state for each case.
Data herein provides preliminary evidence that inclusion of the LWF motif reduces background activation in SynNotch receptors. In initial experiments, the original SynNotch core design (SN) was compare with a SynNotch core containing the LWF motif (SN-LWF) (FIG. 31A). Each receptor core was test with two different transcription factor intracellular domains (ICD's): Gal4 fused to VP64 (“VP64,” a modest transcriptional activator commonly used in SynNotch) and Gal4 fused to VPR (“VPR,” a strong transcriptional activator, whose strength is penalized by high background activation in SynNotch constructs). […]

HEK 293FT cells [7] = assay: Tension Gauge Tether (TGT) assay of Notch/SynNotch receptor activation; assay type: cell-based, human; details: mCherry reporter, flow cytometry
Description: FIG. 5A-5E depict the use of ruptureable double-stranded DNA tethers. […] One strand of the TGT attaches to a rigid plate through biotin-avidin binding, while the other presents a ligand. The TGT ruptures at a defined force, determined by the orientation of the ligand and the biotin. If the TGT is weaker than the force required to activate the Notch receptor, it ruptures before the LNR domains can be displaced. If it is stronger, the LNR domains are displaced and activation occurs.
(FIG. 33A) TGTs are double stranded-DNA tethers that rupture at defined forces. One strand of the TGT attaches to a rigid plate, and the other presents a ligand for cells to bind. In this case, the ligand used is fluorescein, which interacts with an αFITC SynNotch. If the tension tolerance of the TGT is weaker than that of the NRR, the TGT will break before the NRR can open. If it is stronger, the NRR domain will unravel, and Notch activation will occur, as visualized by expression of an H2B-mCherry reporter gene.

For `COc1ccc2c(O[C@@H]3C[C@H]4C(=O)N[C@]5(C(=O)O)C[C@H]5/C=C\CCCCC[C@H](NC(=O)OC5CCCC5)C(=O)N4C3)cc(-c3csc(NC(C)C)n3)nc2c1` [BILN-2061], the “Notch activation of receiver cells (H2B-Citrine) in coculture” value (human Notch1; Dll1-NS3-mCherry sender cells) was “Activated receiver cells were observed only in cocultures treated with drug”, the “surface presentation of Dll1 extracellular region” value (human Notch1; fixed non-permeabilized cells expressing Dll1-NS3-mCherry) was “Surface presentation of the Dll1 extracellular region was induced” and the “expression of the H2B-Citrine reporter protein” value (NS3 protease [1]) was “capable of inducing robust transcriptional responses”. For the same molecule, the “BILN-2061 concentration at which TF stabilization was shown (enhanced detection)” value (NS3 protease [2]) was 0.08 µM, the “nuclear localization of dCas9 domain” value (NS3 protease [3]; HeLa cells, 3 μM BILN-2061) was “Nuclear localized dCas9 was observed only in drug treated cells” and the “stabilization of full-length dCas9-NS3 TF (immunoblot)” value (NS3 protease [3]) was “preservation of full-length dCas9-NS3-NLSNPR copies”. For the same molecule, the “preservation of intact turn-off TF proteins (western blot)” value (NS3 protease [4]) was “Intact proteins were preserved”, the “upregulation of gene targets (UAS H2B-Citrine reporter, CXCR4)” value (CXCR4) was “induce upregulation of both gene targets in a dose-dependent manner” and the “regulation of TRE BFP and UAS H2B-Citrine reporters” value (NS3 protease [5]) was “induced concurrent TRE BFP activation and UAS H2B-Citrine repression”.

For `C[C@H](NC(=O)Cc1cc(F)cc(F)c1)C(=O)N[C@H](C(=O)OC(C)(C)C)c1ccccc1` [DAPT], the “effect on leaky SynNotch receptor activation” value (HEK 293FT cells [6]) was “suppress leaky receptor activation”.

With `COc1ccc2c(O[C@@H]3C[C@H]4C(=O)N[C@]5(C(=O)O)C[C@H]5/C=C\CCCCC[C@H](NC(=O)OC5CCCC5)C(=O)N4C3)cc(-c3csc(NC(C)C)n3)nc2c1` [ciluprevir] the “stabilization of full-length dCas9-NS3 TF (immunoblot)” value (NS3 protease [3]) was “dCNV is stabilized”.

`CC(C)(C)OC(=O)N[C@H]1CCCCC/C=C\[C@@H]2C[C@@]2(C(=O)NS(=O)(=O)C2CC2)NC(=O)[C@@H]2C[C@@H](OC(=O)N3Cc4cccc(F)c4C3)CN2C1=O` [danoprevir] was tested, and the “expression of the H2B-Citrine reporter protein” value (NS3 protease [1]) was “capable of inducing robust transcriptional responses”.

B1: WT NRR: "Notch's force-sensitive Negative Regulatory Region, which contains three LNR domains" (protein, listed as Homo sapiens)
chain: ILDYSFGGGAGRDIPPPLIEEACELPECQEDAGNKVCSLQCNNHACGWDGGDCSLNFNDPWKNCTQSLQCWKYFSDGHCDSQCNSAGCLFDGFDCQRAEGQCNPLYDQYCKDHFSDGHCDQGCNSAECEWDGLDCAEHVPERLAAGTLVVVVLMPPEQLRNSSFHFLRELSRVLHTNVVFKRDAHGQQMIFPYYGREEELRKHPIKRAAEGWAAPDALLGQVKASLLPGGSEGGRRRRELDPMDVRGSIVYLEIDNRQCVQASSQCFQSATDVAAFLGALASLGSLNIPYKIEAVQSETVEPPPPAQ
In the case of B1, the “receptor activation on TGTs of defined strength” value (HEK 293FT cells [7]) is reported as “activated by both 12 pN and 56 pN TGTs; also recorded: responding identically to all mechanical stimuli”.
